Data from patent US6339716B1, “Method for determining viability of a myocardial segment” (Bioenergy Inc., priority 1999, dated 2002).

Tested on: patients suspected of having stunned or hibernating myocardium
Test: Dobutamine echocardiography, regional wall motion during D-Ribose or placebo infusion (randomized, double-blind, crossover clinical trial)
Format: in vivo
Settings: during low-dose dobutamine infusion (5μ/kg/minute); D-Ribose 10% in water iv at 180 mg/kg/hour; 25 patients, 16 left ventricular segments each
Method: A single-center, randomized, double-blind placebo-controlled clinical trial was carried out to evaluate the safety and efficacy of D-Ribose on myocardial wall motion during echocardiographic examination in patients suspected of having stunned or hibernating myocardium. Patients were randomized into placebo and ribose groups according to a computer generated randomization schedule. The identity of the contents was blinded to the investigator. Patients were identified by initials. The selected study population was comprised of 25 patients (22 men and 3 women) with a mean age of 57+/−11 years. All had reduced left ventricular systolic function (mean ejection fraction 30+/−8%, range 18 to 48%). Twenty-two patients (88%) had prior myocardial infarction and only one subject was evaluated after recent (<4 weeks) infarction. […] Post-infusion images were recorded approximately eight minutes after discontinuation of dobutamine. […] Parasternal long and short-axis and apical two and four-chamber images were recorded on 0.5 inch videotape and digitally stored on floppy discs using a Nova MicroSonics DCR or Colorvue system (Mahwah, N.J.). […]

O=C[C@H](O)[C@H](O)[C@H](O)CO [D-Ribose]
segments in which wall motion improved: 65 segments
